Reference: patent US8546381B2, “Bridged heterocyclic compounds and methods of use” (Medivation Technologies, Inc., priority 2008, dated 2013)

Tests used:
[1] = target: T1, human recombinant dopamine D2L receptor (Homo sapiens, UniProt P14416); assay: Dopamine D2L radioligand binding ([3H]Spiperone); settings: read-out: Dopamine (1 μM) D2L, inhibition of ligand binding
T1 construct: expressed in transfected cells; host or cells: CHO cells
Method: To evaluate in radioligand binding assays the activity of compounds of the invention, human recombinant dopamine D2L receptor expressed in Chinese hamster ovary (CHO) cells (Grandy, D. K. et al. Proc. Natl. Acad. Sci. USA. 86:9762, 1989; Hayes, G. et al., Mol. Endocrinol. 6:920, 1992) in a modified Tris-HCl buffer (50 mM Tris-HCl, pH 7.4, 1.4 mM Ascorbic Acid, 0.001% BSA, 150 mM NaCl) was used. Compounds of the invention were incubated with 0.16 nM [^3H]Spiperone for 120 minutes at 25° C. Non-specific binding was estimated in the presence of 10 μM Haloperidol. Receptor proteins were filtered and washed, the filters were then counted to determine [^3H]Spiperone specifically bound. Compounds were screened at 1 μM or lower, using 1% DMSO as vehicle. Biochemical assay results are presented as the percent inhibition of specific binding in Table 3.

[2] = target: T2, human recombinant adrenergic α2A receptor (Homo sapiens, UniProt P08913); assay: Adrenergic α2A radioligand binding ([3H]MK-912); settings: 1 μM; read-out: Adrenergic α2A, inhibition of ligand binding (1 μM)
T2 construct: expressed in transfected cells; host or cells: insect Sf9 cells
T2 sequence (P08913 1-465): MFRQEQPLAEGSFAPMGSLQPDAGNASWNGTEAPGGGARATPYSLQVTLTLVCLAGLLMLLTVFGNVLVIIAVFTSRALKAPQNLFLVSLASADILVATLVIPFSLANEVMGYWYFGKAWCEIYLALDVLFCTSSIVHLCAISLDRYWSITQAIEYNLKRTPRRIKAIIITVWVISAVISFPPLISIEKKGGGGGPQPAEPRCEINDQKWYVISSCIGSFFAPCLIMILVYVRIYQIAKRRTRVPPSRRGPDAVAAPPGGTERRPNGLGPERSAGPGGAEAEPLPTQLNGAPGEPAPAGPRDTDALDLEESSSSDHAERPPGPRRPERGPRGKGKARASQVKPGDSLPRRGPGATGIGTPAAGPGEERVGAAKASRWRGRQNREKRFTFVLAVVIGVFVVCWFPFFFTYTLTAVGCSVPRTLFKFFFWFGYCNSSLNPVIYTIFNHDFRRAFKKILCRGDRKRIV
Method: To evaluate in radioligand binding assays the activity of compounds of the invention, human recombinant adrenergic α2A receptor expressed in insect Sf9 cells (Uhlen S et al. J Pharmacol Exp Ther. 271:1558, 1994) in a modified Tris-HCl buffer (50 mM Tris-HCl, pH 7.4, 12.5 mM MgCl2, 2 mM EDTA) was used. Compounds of invention were incubated with 1 nM [^3H]MK-912 for 60 minutes at 25° C. MK912 is (2S-trans)-1,3,4,5′,6,6′,7,12b-octahydro-1′,3′-dimethyl-spiro[2H-benzofuro[2,3-a]quinolizine-2,4′(1′H) -pyrimidin]-2′(3′H)-one hydrochloride Non-specific binding was estimated in the presence of 10 μM WB-4101 (2-(2,6-Dimethoxyphenoxyethyl)aminomethyl-1,4-benzodioxane hydrochloride). Receptor proteins were filtered and washed, the filters were then counted to determine [^3H]MK-912 specifically bound. Compounds were screened at 1 μM or lower, using 1% DMSO as vehicle. Biochemical assay results are presented as the percent inhibition of specific binding in Table 3.

[3] = target: T3, human recombinant histamine H2 receptor (Homo sapiens, UniProt P25021); assay: Histamine H2 radioligand binding ([125I]Aminopotentidine); settings: compound at 1 μM; inhibition of specific [125I]Aminopotentidine binding; read-out: Histamine Binding (1 μM) H2, Percentage Inhibition
T3 construct: expressed in transfected cells; host or cells: CHO-K1 cells
Method: To evaluate in radioligand binding assays the activity of compounds of the invention, human recombinant histamine H2 receptor expressed in Chinese hamster ovary (CHO) K1 cells (Ruat, M., Proc. Natl. Acad. Sci. USA. 87(5):1658, 1990) in a 50 mM Phosphate buffer, pH 7.4 was used. Compounds of the invention were incubated with 0.1 nM [^125I]Aminopotentidine for 120 minutes at 25° C. Non-specific binding was estimated in the presence of 3 μM Tiotidine. Receptor proteins were filtered and washed, the filters were then counted to determine [^125I]Aminopotentidine specifically bound. Compounds were screened at 1 μM or lower, using 1% DMSO as vehicle. Biochemical assay results are presented as the percent inhibition of specific binding in Table 2.

[4] = target: T4, human recombinant histamine H1 receptor (Homo sapiens, UniProt P35367); assay: Histamine H1 radioligand binding ([3H]Pyrilamine); settings: compound at 1 μM; inhibition of specific [3H]Pyrilamine binding; read-out: Histamine Binding (1 μM) H1, Percentage Inhibition
T4 construct: expressed in transfected cells; host or cells: CHO cells
Method: To evaluate in radioligand binding assays the activity of compounds of the invention, human recombinant histamine H1 receptor expressed in Chinese hamster ovary (CHO) cells (De Backer, M. D. et al., Biochem. Biophys. Res. Comm. 197(3):1601, 1993) in a modified Tris-HCl buffer (50 mM Tris-HCl, pH 7.4, 2 mM MgCl2, 100 mM NaCl, 250 mM Sucrose) was used. Compounds of the invention were incubated with 1.2 nM [^3H]Pyrilamine for 180 minutes at 25° C. Non-specific binding was estimated in the presence of 1 μM pyrilamine. Receptor proteins were filtered and washed, the filters were then counted to determine [^3H]Pyrilamine specifically bound. Compounds were screened at 1 μM or lower, using 1% DMSO as vehicle. Biochemical assay results are presented as the percent inhibition of specific binding in Table 2.

T4 sequence (P35367 whole entry): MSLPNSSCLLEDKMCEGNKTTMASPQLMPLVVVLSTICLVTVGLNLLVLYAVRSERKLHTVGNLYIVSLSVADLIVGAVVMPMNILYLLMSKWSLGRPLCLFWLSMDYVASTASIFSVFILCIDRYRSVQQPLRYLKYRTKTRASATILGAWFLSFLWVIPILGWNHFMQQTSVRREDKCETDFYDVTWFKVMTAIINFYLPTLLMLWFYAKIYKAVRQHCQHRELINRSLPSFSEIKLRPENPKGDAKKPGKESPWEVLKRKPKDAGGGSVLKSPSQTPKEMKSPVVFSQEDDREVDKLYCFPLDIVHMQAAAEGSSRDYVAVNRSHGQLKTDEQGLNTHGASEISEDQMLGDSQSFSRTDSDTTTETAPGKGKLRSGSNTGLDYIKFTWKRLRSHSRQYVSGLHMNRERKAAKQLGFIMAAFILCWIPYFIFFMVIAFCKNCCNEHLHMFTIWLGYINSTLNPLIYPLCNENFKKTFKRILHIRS
T3 sequence (P25021 whole entry): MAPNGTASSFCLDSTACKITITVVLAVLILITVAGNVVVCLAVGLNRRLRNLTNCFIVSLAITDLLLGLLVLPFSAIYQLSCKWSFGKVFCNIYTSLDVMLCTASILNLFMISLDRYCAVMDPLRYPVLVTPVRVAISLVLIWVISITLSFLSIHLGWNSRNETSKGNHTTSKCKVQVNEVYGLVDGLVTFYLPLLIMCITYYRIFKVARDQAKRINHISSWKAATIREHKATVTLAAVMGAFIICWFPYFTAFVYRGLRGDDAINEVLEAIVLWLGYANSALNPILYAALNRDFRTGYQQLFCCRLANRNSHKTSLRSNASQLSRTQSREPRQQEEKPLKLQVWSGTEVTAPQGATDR
T1 sequence (P14416 whole entry): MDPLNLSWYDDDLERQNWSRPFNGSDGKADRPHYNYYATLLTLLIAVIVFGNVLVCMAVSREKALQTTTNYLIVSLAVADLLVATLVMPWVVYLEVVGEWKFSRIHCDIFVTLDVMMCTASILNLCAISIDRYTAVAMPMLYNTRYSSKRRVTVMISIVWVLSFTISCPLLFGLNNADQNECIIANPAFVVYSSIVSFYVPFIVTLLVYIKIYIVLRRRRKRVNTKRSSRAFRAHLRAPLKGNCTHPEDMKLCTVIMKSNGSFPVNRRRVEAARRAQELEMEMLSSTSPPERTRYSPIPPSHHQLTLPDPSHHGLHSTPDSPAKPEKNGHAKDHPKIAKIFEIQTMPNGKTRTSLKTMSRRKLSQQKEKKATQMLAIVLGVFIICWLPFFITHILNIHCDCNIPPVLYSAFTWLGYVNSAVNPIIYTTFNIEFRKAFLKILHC

Row | Structure (SMILES) | inhibition at 1 µM [1] [%] | inhibition at 1 µM [2] [%] | inhibition at 1 µM [3] [%] | inhibition at 1 µM [4] [%]
1 | CCOC(=O)CCn1c2c(c3cc(Cl)ccc31)C1CCC(C2)N1C (stereo not shown) [Compound 70, ethyl 3-(2-chloro-11-methyl-5,6,7,8,9,10-hexahydro-7,10-iminocyclohept[b]indol-5-yl)propanoate] | -3 | 3 | 7 | 65
2 | CN1C2CCC1c1c(n(CCC(=O)O)c3ccc(Cl)cc13)C2 (stereo not shown) [Compound 72] | 3 | 6 | 7 | 14
3 | CN1C2CCC1c1c(n(CCC(N)=O)c3ccc(Cl)cc13)C2 (stereo not shown) [Compound 73] | -4 | 6 | -1 | 10
4 | CN1C2CCC1c1c(n(CCc3ccc(C(F)(F)F)nc3)c3cc(F)c(Cl)cc13)C2 (stereo not shown) [Compound 77] | 4 | 30 | 7 | 32
5 | Cc1ccc(CCn2c3c(c4cc(Cl)ccc42)C2CCC(C3)N2C)cn1 (stereo not shown) [Compound 79] | 9 | 14 | 1 | 93
6 | CN1C2CCC1c1c(n(CCc3cccnc3)c3ccc(Cl)cc13)C2 (stereo not shown) [Compound 80] | -3 | 21 | -3 | 94
7 | Cc1ccc2c(c1)c1c(n2CCc2cnc(C)nc2)CC2CCC1N2C (stereo not shown) [Compound 81] | 9 | -5 | -9 | 51
8 | Cc1ncc(CCn2c3c(c4cc(Cl)ccc42)C2CCC(C3)N2C)cn1 (stereo not shown) [Compound 82] | 2 | 5 | -8 | 44
9 | COc1ccc(CCn2c3c(c4cc(C)ccc42)C2CCC(C3)N2C)cc1 (stereo not shown) [Compound 83] | 12 | 77 | 15 | 98
10 | COc1ccc(CCn2c3c(c4cc(Cl)ccc42)C2CCC(C3)N2C)cc1 (stereo not shown) [Compound 84] | -6 | 76 | 63 | 83
11 | Cc1ccc2c(c1)c1c(n2CCCc2ccc(Cl)cc2)CC2CCC1N2C (stereo not shown) [Compound 85] | -2 | 73 | 81 | 99
12 | Cc1ccc2c(c1)c1c(n2CCc2cccnc2)CC2CCC1N2C (stereo not shown) [Compound 86] | 4 | 63 | 26 | 99
13 | CN1C2CCC1c1c(n(CCc3cncc(Cl)c3)c3ccc(Cl)cc13)C2 (stereo not shown) [Compound 87] | -6 | 21 | 7 | 96
14 | Cc1ccc2c(c1)c1c(n2CCc2cncc(Cl)c2)CC2CCC1N2C (stereo not shown) [Compound 88] | 4 | 32 | 5 | 95
15 | Cc1cncc(CCn2c3c(c4cc(Cl)ccc42)C2CCC(C3)N2C)c1 (stereo not shown) [Compound 89] | 9 | 5 | -1 | 92
16 | Cc1cncc(CCn2c3c(c4cc(C)ccc42)C2CCC(C3)N2C)c1 (stereo not shown) [Compound 90] | -4 | 26 | -1 | 93
17 | Cc1ccc2c(c1)c1c(n2CC(O)c2ccc(C)nc2)CC2CCC1N2C (stereo not shown) [Compound 91] | -5 | 29 | 9 | 51
18 | Cc1ccc(CCn2c3c(c4ccccc42)C2CCC(C3)N2C)cn1 (stereo not shown) [Compound 92] | 0 | 15 | 11 | 54
19 | Cc1ccc2c(c1)c1c(n2CC(=O)N2CCCCC2)CC2CCC1N2C (stereo not shown) [Compound 93] | -19 | 4 | -5 | 4
20 | CN1[C@@H]2CC[C@H]1c1c(n(CCc3ccc(F)cc3)c3ccc(F)cc13)C2 [Compound 94, (+)-(7S,10R)-2-Fluoro-5-(4-fluorophenethyl)-11-methyl-5,6,7,8,9,10-hexahydro-7,10-iminocyclohept[b]indole] | 14 | 56 | 4 | 92
21 | CN1[C@H]2CC[C@@H]1c1c(n(CCc3ccc(F)cc3)c3ccc(F)cc13)C2 [Compound 95, (−)-(7R,10S)-2-Fluoro-5-(4-fluorophenethyl)-11-methyl-5,6,7,8,9,10-hexahydro-7,10-iminocyclohept[b]indole] | 50 | 65 | 8 | 55
22 | CN1[C@@H]2CC[C@H]1c1c(n(CCc3ccc(C(F)(F)F)nc3)c3ccccc13)C2 [Compound 97] | -10 | 26 | 11 | 26
23 | CN1[C@@H]2CC[C@H]1c1c(n(CC(C)(O)c3ccc(F)cc3)c3ccccc13)C2 (stereo partly shown) [Compound 99] | -6 | 25 | 6 | 21
24 | CN1[C@@H]2CC[C@H]1c1c(n(CC(=O)N3CCCCC3)c3ccccc13)C2 [Compound 101] | 10 | 18 | 19 | 48
25 | Cc1ccc(CCn2c3c(c4ccccc42)[C@@H]2CC[C@H](C3)N2C)cn1 [Compound 102] | -1 | 4 | 3 | 52
26 | Cc1ccc2c(c1)c1c(n2CCC#N)CC2CCC1N2C (stereo not shown) [Compound 103] | 4 | 57 | 1 | 85
27 | CN1C2CCC1c1c(n(CCC#N)c3ccc(Cl)cc13)C2 (stereo not shown) [Compound 107] | -5 | 42 | -4 | 72
28 | CN1C2CCC1c1c(n(CC(=O)c3ccccc3)c3ccc(Cl)cc13)C2 (stereo not shown) [Compound 110] | 14 | 48 | 27 | 36
